Data reported in BindingDB's records for doi:10.1021/ml200284s (2012).

Test: Inhibition of dynamin1-mediated endocytosis in human U2OS cells assessed as inhibition of Texas red-Tf uptake incubated for 30 mins prior to Texas red-Tf addition measured after 8 mins by receptor-mediated endocytosis assay

IC50 | SMILES
18.1 µM | O=C1N=C(S)SC1=Cc1cc(Cl)cc(Cl)c1
5.9 µM | C=CCN1C(=O)/C(=C/c2ccc(OCCCN(C)C)cc2)SC1=S
> 100 µM | O=C(O)CN1C(=O)/C(=C/c2csc3ccc(Cl)cc23)SC1=S
